Where a name gives a salt, the structure may show the parent alone.
Tests used:
[1] = test system: human epidermal keratinocytes; assay: ATP secretion from human epidermal keratinocytes promoted by ionomycin; format: cell-based
Experimental: Human epidermal keratinocytes (Cryopreserved HEK, Lot 1758, Cell Applications Inc.) were cultured using an Epivita Keratinocyte Growth Medium Kit according to the manufacturer's instructions. The procedure was as follows. A supplement medium was added to a hydrocortisone-containing basal medium included in the medium preparation kit to prepare a complete medium. The medium in the dish was removed by aspiration. The cells were washed with 5 ml of BSS (Gbco), and then the BSS was removed by aspiration. After addition of 5 to 6 ml of trypsin/EDTA solution (Gbco), the dish was incubated at 37° C. for 2 minutes. After addition of 5 ml of trypsin neutralization solution, the resulting cell suspension was transferred into two 15-ml Falcon tubes, and centrifuged at 200×g for 5 minutes. The supernatant was removed by aspiration, and the pelleted cell cluster was suspended in 2 ml of the medium at 4.5×10^5 cells/ml. An aliquot of the resulting cell suspension was cryopreserved, while another aliquot was cultured and subjected to measurement.
ATP secretion by human epidermal keratinocytes (hereinafter referred to as “keratinocytes”) was measured. Regarding control solutions, Krebs-Ringer HEPES supplemented with 0.2% BSA and 25 mM glucose (hereinafter also referred to as “Krebs/Iono(−)”) was used as a negative control, and a solution prepared by adding 5 μM ionomycin to this solution (hereinafter also referred to as “Krebs/Iono(+)”) was used as a positive control for ATP secretion. Ionomycin is a Ca^2+ ionophore. Addition of ionomycin to cells is known to promote influx of extracellular Ca^2+ into the cells to increase the intracellular Ca^2+ concentration, resulting in enhancement of ATP secretion. Test solutions were prepared by adding clodronate to Krebs/Iono(−) or Krebs/Iono(+) to a final concentration of 0.1 μM (hereinafter also referred to as “Clo/Iono(−)” or “Clo/Iono(+)”, respectively) (N=3).
Keratinocytes were cultured at 2.5×10^4 cells/well in a 24-well plate at 37° C. in 5% CO2 for 4 days. The medium was removed by aspiration, replaced with Krebs/Iono(−) or Clo/Iono(−), and incubated at 37° C. for 6 hours. These solutions were then removed by aspiration, and the content of each well incubated with Krebs/Iono(−) was replaced with 300 μl of a control solution (Krebs/Iono(−) or Krebs/Iono(+)), while the content of each well incubated with Clo/Iono(−) was replaced with 300 μl of a test solution (Clo/Iono(−) or Clo/Iono(+)). After further incubation at 37° C. for 20 minutes, 200 μl of the supernatant was collected. The collected supernatant was immediately treated on a heat block at 95° C. for 10 minutes, to inactivate ectonucleotidase. ATP in the supernatant was quantified using a Dojindo ATP assay kit−Luminescence (manufactured by Dojindo Laboratories).
Keratinocytes were cultured in the same manner as in Example 1, and ATP secretion from the keratinocytes was measured. Krebs/Iono(−), or a solution prepared by adding 10 μM imeglimin, 0.1 μM eicosapentaenoic acid (EPA), 1 μM EPA, or 10 μM clodronate to Krebs/Iono(−) was used (N=4).
After culturing keratinocytes, the medium was removed by aspiration, and replaced with Krebs/Iono(−), or Krebs/Iono(−) supplemented with 10 μM imeglimin, 0.1 μM EPA, 1 μM EPA, or 10 μM clodronate, followed by incubation for 6 hours. Subsequently, the solution was replaced with either a control solution (Krebs/Iono(−) or Krebs/Iono(+)) or a test solution (Krebs/Iono(+) supplemented with 10 μM imeglimin, 0.1 μM EPA, 1 μM EPA, or 10 μM clodronate), followed by incubation at 37° C. for 20 minutes and then collection of 200 μl of the supernatant. The collected supernatant was immediately treated on a heat block at 95° C. for 10 minutes to inactivate ectonucleotidase. ATP in the supernatant was quantified using a Dojindo ATP assay kit—Luminescence (manufactured by Dojindo Laboratories). […]

[2] = test system: human epidermal keratinocytes; assay: ATP secretion from keratinocytes upon LPS stimulation; format: cell-based; conditions: 10 μM, 18 hours, 10 μg/ml LPS, N=8 (FIG. 8)
Experimental: Keratinocytes were cultured in the same manner as in Example 1. Keratinocytes were cultured at 2.5×10^4 cells/well in a 24-well plate at 37° C. in 5% CO2 for 4 days. The medium was replaced with a test solution (Hanks' balanced salt solution (HBSS) (manufactured by Gibco) supplemented with imeglimin, metformin, or clodronate), and then incubation was performed at 37° C. in 5% CO2 for 18 hours. Thereafter, LPS (10 μg/ml) was added thereto, and incubation was further carried out for 10 minutes, followed by collection of 200 μl of the supernatant. The supernatant was immediately treated on a heat block at 95° C. for 10 minutes, and ATP in the supernatant was quantified using an ATP Assay Kit−Luminescence (manufactured by Dojindo) (N=8).

V-ATPase [3] = assay: Inhibitory effect on V-ATPase (data not shown)
VNUT = assay: Inhibitory effect on VNUT (data not shown)
[4] = test system: ATP-loaded vesicles of keratinocytes; assay: Accumulation of MANT-ATP in granules of keratinocytes (confocal microscopy); format: cell-based, human; conditions: 0.3 mM MANT-ATP, control without imeglimin (FIG. 13)
Experimental: Keratinocytes were cultured in the same manner as in Example 8. Keratinocytes were cultured at 4×10^4 cells/ml in a glass-bottom dish (35 mm, manufactured by Matsunami Glass Ind., Ltd.) at 37° C. in 5% CO2 for 2 days. The culture medium was then replaced with a medium supplemented with MANT-ATP (manufactured by Invitrogen) at a final concentration of 0.3 mM, and further incubation was performed for 4.5 hours. Subsequently, imeglimin was added thereto to a final concentration of 10 μM, and further incubation was performed at 37° C. in 5% CO2 for 19 hours. Thereafter, the cells were washed twice with HBSS (manufactured by Gibco) and observed using an inverted confocal laser microscope (FV-1000 OSR, manufactured by Olympus Corporation).

[5] = test system: catecholamine transport of chromaffin granule membranes; assay: Catecholamine (dopamine) transport in chromaffin granule membranes; format: biochemical, cattle; conditions: role: inhibitor; MANT-ATP, N=3 (FIG. 11)
Experimental: (§1) Chromaffin granule membranes were prepared from adrenal glands collected from slaughtered cattle according to Reference A (Nathan Nelson et al., 1988, Chromaffin Granule Proton Pump, Methods in Enzymology, 157, 619-633). Chromaffin granule membranes prepared by sucrose density gradient centrifugation were suspended in 2 ml of SME buffer (20 mM MOPS-tris (pH 7.0), 0.3 M sucrose, 5 mM EDTA, 10 μg/ml leupeptin, and 10 μg/ml pepstatin)+25% glycerol, and the resulting suspension was aliquoted and stored at −80° C. Under these conditions, the ATP transport activity, the V-ATPase activity, and the catecholamine transport activity remain fully active for at least one year.
A catecholamine transport inhibition experiment was carried out in the same manner as the ATP transport experiment except that the experiment used a measurement liquid containing 20 mM MOPS-tris (pH 7.0), 0.1 M sucrose, 0.1 M potassium chloride, 5 mM magnesium acetate, and about 5 μg of chromaffin granule membranes. To 0.5 ml of the measurement liquid, 2 mM ATP was added, and the resulting mixture was incubated at 30° C. for about 5 minutes, followed by addition of 3[H]-dopamine thereto to a final concentration of 10 μM. After further incubation at 30° C. for 15 minutes, 0.2 ml of the reaction liquid was subjected to suction filtration through a Millipore MCE membrane filter with a pore size of 0.45 μm, and the radioactivity on the filter was measured (N=3). The substrate, 3[H]-dopamine, was prepared by mixing 3,4-[RING-2,5,6-^3H]dihydroxyphenylethylamine (dopamine) (30 Ci/mmol) (manufactured by New England Nuclear) with dopamine hydrochloride (manufactured by LKT Laboratories) such that a final concentration of […] was achieved during the use.
(§2) Chromaffin granule membrane vesicles were prepared in the same manner as in Example 5, and uptake of radiolabeled ATP into the vesicles was measured. Transport activity of catecholamine (dopamine) and ATP-dependent proton transport by V-ATPase were also measured in the same manner as in Example 5.

[6] = test system: chromaffin granule membrane; assay: ATP transport (uptake of radiolabeled ATP) in chromaffin granule membrane vesicles; format: biochemical, cattle; conditions: role: inhibitor, MANT-ATP
Experimental: as §1
An ATP transport inhibition experiment for the chromaffin granule membrane was carried out according to Reference B (Yoshinori Moriyama et al., 2022, Is the vesicular nucleotide transporter a molecular target of eicosapentaenoic acid?, Frontiers in Pharmacology, 103389). About 20 μg of chromaffin granule membranes were added to 0.5 ml of measurement buffer (20 mM MOPS-tris (pH 7.0), 0.3 M sucrose, 5 mM potassium chloride, 5 mM magnesium acetate, 5 mM creatine phosphate, 10 units of creatine kinase, and 1 mM 3[H]-ATP [15 KBq/assay]), followed by incubation at 30° C. for 1 hour. Through a Millipore MCE membrane filter with a pore size […], 0.2 ml of the reaction liquid was filtered by suction. Thereafter, the filter was washed with 10 ml of 20 mM MOPS-tris (pH 7.0), 0.3 M sucrose, 5 mM potassium chloride, and 5 mM magnesium acetate, and dissolved in 10 ml of Clear-sol II (manufactured by Nacalai Tesque, Inc.). The radioactivity was then measured using a liquid scintillation counter (N=3).
The reaction was initiated by adding 50 mM ^3[H]-ATP to a final concentration of 1 mM. The 50 mM ^3[H]-ATP was prepared by mixing an ATP-tris solution (manufactured by Sigma-Aldrich) with [2,8-^3H]adenosine triphosphate tetrasodium salt (26.0 Ci/mmol) (manufactured by New England Nuclear). PEP was used as a test reagent, and pyruvic acid was used as a negative control. Five minutes before the addition of ATP, PEP or pyruvic acid, as a solution in 20 mM MOPS-tris (pH 7.0), 0.3 M sucrose, 5 mM potassium chloride, and 5 mM magnesium acetate, was added to the measurement liquid to a final PEP concentration of 0.02, 0.05, 0.1, 0.2, 0.4, or 1 mM, or to a final pyruvic acid concentration of 0.5 or 1 mM.
as §2

V-ATPase [7] = biological target: T1, V-ATPase (Bos taurus, UniProt P31404+P31408); assay: ATP-dependent proton transport by V-ATPase (acridine orange fluorescence quenching); format: biochemical, cattle
T1 construct: Chromaffin granule membranes were prepared from adrenal glands collected from slaughtered cattle; from tissue; host or cells: cattle adrenal glands, chromaffin granule membranes (sucrose density gradient)
Experimental: as §1
ATP-dependent proton transport by V-ATPase was measured according to Reference B. Proton transport activity was measured using a spectrofluorometer at excitation wavelength of 492 nm and a fluorescence wavelength 540 nm, wherein fluorescence quenching of acridine orange was used as an index (N=2). The transmembrane potential generated was measured using a spectrofluorometer at an excitation wavelength of 580 nm and a fluorescence wavelength of 630 nm, wherein fluorescence quenching of oxonol-V was used as an index (N=2). The acridine measurement liquid (2 ml) contained 20 mM MOPS-tris (pH 7.0), 0.2 M sucrose, 0.1 M potassium chloride, 5 mM magnesium acetate, 0.2 μg valinomycin, 2 μM acridine orange, and about 20 μg of chromaffin granules. The oxonol-V measurement liquid (2 ml) contained 20 mM MOPS-tris (pH 7.0), 0.3 M sucrose, 5 mM magnesium acetate, 5 μM oxonol-V, and about 20 μg of chromaffin granules.
as §2

T1 sequence (P31404 whole entry, looked up): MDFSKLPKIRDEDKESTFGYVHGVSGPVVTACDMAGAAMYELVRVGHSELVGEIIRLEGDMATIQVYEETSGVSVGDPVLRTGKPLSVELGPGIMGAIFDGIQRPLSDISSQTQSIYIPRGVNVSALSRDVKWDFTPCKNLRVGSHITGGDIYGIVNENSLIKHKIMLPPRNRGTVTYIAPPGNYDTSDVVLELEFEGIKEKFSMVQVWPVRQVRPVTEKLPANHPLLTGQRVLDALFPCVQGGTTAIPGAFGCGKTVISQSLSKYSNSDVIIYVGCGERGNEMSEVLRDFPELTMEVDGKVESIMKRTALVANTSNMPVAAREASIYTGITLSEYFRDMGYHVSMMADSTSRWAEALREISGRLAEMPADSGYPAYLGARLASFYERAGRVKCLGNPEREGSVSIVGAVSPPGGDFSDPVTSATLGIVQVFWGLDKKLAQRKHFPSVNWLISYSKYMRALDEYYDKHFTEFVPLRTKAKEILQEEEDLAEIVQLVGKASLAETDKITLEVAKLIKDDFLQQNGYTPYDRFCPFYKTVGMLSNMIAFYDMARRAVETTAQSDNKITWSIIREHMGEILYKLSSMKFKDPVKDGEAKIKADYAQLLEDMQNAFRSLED
T1 sequence (P31408 whole entry, looked up): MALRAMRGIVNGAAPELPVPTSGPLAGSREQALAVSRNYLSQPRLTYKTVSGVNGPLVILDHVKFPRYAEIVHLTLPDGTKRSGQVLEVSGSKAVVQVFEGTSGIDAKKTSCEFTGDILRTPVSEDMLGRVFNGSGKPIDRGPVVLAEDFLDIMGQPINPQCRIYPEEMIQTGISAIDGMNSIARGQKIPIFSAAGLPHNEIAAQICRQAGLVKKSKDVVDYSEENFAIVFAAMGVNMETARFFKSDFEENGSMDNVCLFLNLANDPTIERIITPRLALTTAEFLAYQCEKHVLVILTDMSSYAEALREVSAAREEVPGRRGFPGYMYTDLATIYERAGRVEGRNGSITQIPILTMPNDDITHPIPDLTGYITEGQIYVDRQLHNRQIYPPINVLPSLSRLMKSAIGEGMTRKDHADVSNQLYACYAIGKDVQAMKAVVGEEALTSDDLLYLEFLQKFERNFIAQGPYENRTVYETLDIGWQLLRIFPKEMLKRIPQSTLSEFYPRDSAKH

Row | SMILES | ATP secretion inhibitory effect at low concentration ([1]; 0.1 μM, 6 h preincubation, ionomycin) | ATP secretion inhibitory effect at higher concentrations ([1]; up to 10 μM metformin) | LPS-stimulated ATP secretion [2] | inhibitory effect on V-ATPase (V-ATPase [3]) | inhibitory effect on VNUT (VNUT) | accumulation in the granules in keratinocytes [4] | effect on catecholamine transport system [5] | mode of inhibition of ATP transport by VNUT [6] | ATP transport ([6]; radiolabeled ATP, N=3 (FIG. 10)) | IC50 ([6]; radiolabeled ATP, N=3 (FIG. 10), read-out: ID50 of ATP transport) | effect on ATP-dependent proton transport by V-ATPase (V-ATPase [7]; role: inhibitor, MANT-ATP up to 100 μM, N=1 (FIG. 12)) | quenching of acridine orange fluorescence (V-ATPase [7]; role: substrate, 0.1 mM MANT-ATP) | total acridine orange fluorescence quenching (V-ATPase [7]; role: substrate, 0.1 mM MANT-ATP followed by addition of ATP)
1 | CN(C)C(=N)NC(=N)N [metformin] | exhibit an ATP secretion inhibitory effect | decreased inhibitory effect at higher concentrations | almost completely inhibited | neither imeglimin nor metformin exhibited a strong inhibitory effect | neither imeglimin nor metformin exhibited a strong inhibitory effect | – | – | – | – | – | – | – | –
2 | CNc1ccccc1C(=O)O[C@H]1[C@@H](O)[C@H](n2cnc3c(N)ncnc32)O[C@@H]1COP(=O)(O)OP(=O)(O)OP(=O)(O)O [MANT-ATP, 2′/3′-O—(N-methyl-anthraniloyl)-adenosine-5′-triphosphate triethylammonium salt] | – | – | – | – | – | accumulation of MANT-ATP in the granules | hardly affected | competitively inhibits | strongly inhibited ATP transport | ~30 mM | did not affect | 34% | 61.8%
